In patent US10151975B2, “Lithographic printing plate precursor” (AGFA NV, priority 2013, dated 2018):

Assay: Solubility of the compounds: visual homogeneity of mixture in aqueous buffer pH 7
Type: physicochemical
Set-up: key to Visual homogeneity After 1 hour / Visual homogeneity After 1 day / Visual homogeneity After 4 days / Visual homogeneity After 1 week / Visual homogeneity After 2 weeks: −: heterogeneous mixture; +: homogeneous mixture
Settings: for Time after which the mixture becomes homogeneous: 100 mg compound in 5 ml aqueous buffer pH = 7; for Visual homogeneity After 1 week / Visual homogeneity After 2 weeks / Visual homogeneity After 1 hour / Visual homogeneity After 1 day / Visual homogeneity After 4 days: 100 mg compound in 5 ml aqueous buffer pH = 7, room temperature
Method: Solubility of the Compounds
100 mg of the inventive and comparative compounds were added to 5 ml of a CertiPUR pH=7 buffer solution available from Merck. The mixture was gently stirred at room temperature and the homogeneity of the mixture was evaluated visually after different times: […]

| Time after which the mixture becomes homogeneous | Visual homogeneity After 1 week | Visual homogeneity After 2 weeks | Visual homogeneity After 1 hour | Visual homogeneity After 1 day | Visual homogeneity After 4 days | SMILES |
| --- | --- | --- | --- | --- | --- | --- |
| 1 week | + | + | − | − | − | C=C(C)C(=O)OCCOC(=O)C(=O)OCCOC(=O)C(=C)C [Compound M-1] |
| 1 week | + | + | − | − | − | C=CC(=O)OCCCCOC(=C)C(=O)OCCCCOC(=O)C=C [Compound M-2] |
| 1 days | + | + | − | + | + | C=CC(=O)NCCOC(=O)C(=O)OCCNC(=O)C=C [Compound M-3] |
|  | − | − | − | − | − | C=C(C)C(=O)OCCCNC(=O)C(=O)NCCCOC(=O)C(=C)C [Compound M-4] |
|  | − | − | − | − | − | C=CC(=O)OCCn1c(=O)n(CCOC(=O)C=C)c(=O)n(CCOC(=O)C=C)c1=O [Compound M-6] |
|  | − | − | − | − | − | C=CC(=O)OCCOCCOc1ccc(C(C)(C)c2ccc(OCCOC(=O)C=C)cc2)cc1 [Compound M-7] |

| SMILES | Time after which the mixture becomes homogeneous | Visual homogeneity After 1 week | Visual homogeneity After 2 weeks | Visual homogeneity After 1 hour | Visual homogeneity After 1 day | Visual homogeneity After 4 days |
| --- | --- | --- | --- | --- | --- | --- |
| C=C(C)C(=O)OCCOC(=O)NCCC(C)CC(C)(C)CNC(=O)OCCOC(=O)C(=C)C (centres unmarked) [Compound M-5] |  | − | − | − | − | − |
